Where a SMILES comes first, the peptide text is derived from it.
Columns and labels:
[1] = system: GFPβ1-10 expressing H1299c#G3 cells; assay type: cell-based, human; details: FACS FSC/SSC and viable cell number relative to untreated control cells
Text: Cell morphology and cell viability.

[2] = system: GFPβ1-10 expressing MCF7c#G7 cells; details: increasing amounts of peptide (FIG. 6)
Procedure: (§3) Cell morphology and cell viability. Cell morphology was determined by FACS analysis of FSC and SSC. Gates were set manually for viable cells using untreated control cells as reference and the fraction of viable cells compared to non-viable cells was determined for each sample. Data are presented as the relative difference compared to non-treated control cells. Viable cells per sample were determined by measuring number of viable cells that were analyzed per second by FACS. Gates for viable cells were set manually using untreated control cells as reference. Data are presented as the relative difference compared to untreated control cells.

[3] = system: GFPβ1-10 expressing HaCatc#G7 cells; details: increasing amounts of peptide (FIG. 6)
Procedure: as §3

[4] = system: GFPβ1-10 expressing H1299c#G3 cells; experiment: split GFP fluorescence complementation transduction assay (FACS); assay type: cell-based, human; details: dose-dependent comparison, up to 60 μM, FACS (FIG. 4, 5)
Procedure: (§1) Peptide transduction. All transduction experiments were performed in 48-well plates. An optimized protocol was established. First, 15,000 or 20,000 cells were plated in each well. Next day, the indicated peptides were pipetted into eppendorf tubes. Transduction buffer (60% OptiMEM and 40% PBS) was added to peptide (100 μl total volume), directly mixed by pipetting up and down five times and then immediately transferred to cells. All pipetting steps were done in a laminar flow cell culture hood and standardized to 15 min for each plate before transferring the plate of cells to a 37° C. CO2 incubator for 1.5 h before addition of 500 μl DMEM supplemented with 10% FBS and another incubation round for 3.5 h in the 37° C. CO2 incubator (alternatively cells were incubated 2 h with peptides and another 4 h with DMEM, 10% FBS (FIG. 8b, c, d). For the transduction time-course, cells were incubated with peptides in transduction buffer until indicated time-points. All cells were trypzinized and collected in 250 μl OptiMEM without phenol red and analyzed by FACS (GFP, FSC/SSC). 4000 viable cells were analyzed per sample. Data is presented as fold change in fluorescence compared to non-treated cells.
To address these problems, the disclosure provides a self-assembling, bimolecular or split GFP fluorescence complementation system that was originally designed to tag and monitor proteins. GFP is composed of 11 β-strands that form a barrel structure allowing for peptidyl backbone cyclization and formation of a fluorescent chromophore. […] Importantly, co-incubation of GFPβ1-10 with the GFPβ11 peptide in trans efficiently reconstitutes GFP fluorescent chromophore bond and GFP fluorescence (FIG. 1a). To study PTD-mediated delivery, cell lines were generated that constitutively expressed the non-fluorescent GFPβ1-10 fragment and treated them in trans with a GFPβ11-PTD/CPP peptide to restore GFP fluorescence.
Cell clones of various human cell lines constitutively expressing the non-fluorescent large GFPβ1-10 fragment, including H1299 non-small cell lung carcinoma, HaCaT immortalized keratinocytes, and MDA-MB-231 and MCF7 breast carcinomas, and assayed for reconstituted intracellular GFP fluorescence after treatment with transducible GFPβ11-PTD/CPP peptides by FACS (FIG. 1a). Starting with human H1299 cells, known to be a good model for PTD/CPP-mediated uptake, two GFPβ1-10 expressing clones were generated (c#G3 and c#G4) (FIG. 8a). GFPβ1-10 expressing H1299c#G3 cells were treated for 1.5 h with increasing amounts of transducible GFPβ11-TAT peptide (0-60 μM), followed by an additional 3.5 h in DMEM supplemented with 10% FBS. At 5 h post-addition of GFPβ11-TAT peptide, cells were trypsinized and live cell assayed by FACS.

[5] = system: GFPβ1-10 expressing MDA-MB-231c#G3 cells; details: increasing amounts of peptide (FIG. 6)
Procedure: as §3

[6] = system: GFPβ1-10 expressing MDA-MB-231c#G3 cells; experiment: split GFP fluorescence complementation transduction assay (FACS); assay type: cell-based, human; details: increasing amounts of peptide (FIG. 6)
Procedure: (§2) Cell culture, transfections and immunoblots. H1299, MCF7, MDA-MB-231 and HaCat cells were maintained in DMEM supplemented with 10% FBS, 100 U/ml penicillin, and 100 U/ml streptomycin. H1299c#G3, H1299c#G4, MCF7c#G7, MDA-MB-231c#G3 and HaCaTc#G7 cells were generated by transfecting cells with pCMV-mGFPβ1-10 and subsequently grown under hygromycin selection. Hygromycin resistant cells were then treated with GFPβ11-TAT and directly after, individual, transiently fluorescent clonal cells were isolated by FACS sorting. Clones were expanded and tested for stable GFPβ1-10 expression. H1299c#G3, H1299c#G4, MCF7c#G7, MDA-MB-231c#G3 and HaCaTc#G7 cells were maintained in DMEM supplemented with 10% FBS, 100 U/ml penicillin, 100 U/ml streptomycin and 80 or 100 ug/ml hygromycin. Transient transfections of siRNA or plasmid DNA were performed using Lipofectamine 2000 according to standard protocol. Immunblots were performed using 10% SDS-PAGE, semi-dry transfer (BioRad) and developed on ChemiDoc Imager (BioRad).
as §1, with “CO2 incubator for 1.5 h before addition of 500 μl DMEM supplemented with 10% FBS and another incubation round for 3.5 h in the 37° C.” left out

[7] = system: GFPβ1-10 expressing HaCatc#G7 cells; experiment: as above; assay type: cell-based, human; details: increasing amounts of peptide (FIG. 6)
Procedure: as §2
as §1, with “CO2 incubator for 1.5 h before addition of 500 μl DMEM supplemented with 10% FBS and another incubation round for 3.5 h in the 37° C.” left out

[8] = system: GFPβ1-10 expressing MCF7c#G7 cells; experiment: as above; assay type: cell-based, human; details: increasing amounts of peptide (FIG. 6)
Procedure: as §2
as §1, with “CO2 incubator for 1.5 h before addition of 500 μl DMEM supplemented with 10% FBS and another incubation round for 3.5 h in the 37° C.” left out

| Molecule | cytotoxicity / morphological changes [1] | cytotoxicity [2] | cytotoxicity [3] | GFP fluorescence / transduction compared to parental GFPβ11-(S-S)-TAT [4] | cytotoxicity [5] | GFP complementation compared to parental GFPβ11-(S-S)-TAT control peptide [6] | GFP complementation compared to parental GFPβ11-(S-S)-TAT control peptide [7] | GFP complementation compared to parental GFPβ11-(S-S)-TAT control peptide [8] |
| --- | --- | --- | --- | --- | --- | --- | --- | --- |
| CC[C@H](C)[C@H](NC(=O)CNC(=O)[C@H](C)NC(=O)[C@H](C)NC(=O)[C@H](CC(N)=O)NC(=O)[C@@H](NC(=O)[C@H](Cc1ccc(O)cc1)NC(=O)[C@H](CCC(=O)O)NC(=O)[C@H](Cc1c[nH]cn1)NC(=O)[C@H](CC(C)C)NC(=O)[C@@H](NC(=O)[C@H](CCSC)NC(=O)[C@H](Cc1c[nH]cn1)NC(=O)[C@H](CC(=O)O)NC(=O)[C@@H](N)CCCNC(=N)N)C(C)C)C(C)C)C(=O)N[C@H](C(=O)NCC(=O)NCC(=O)N[C@@H](CO)C(=O)NCC(=O)NCC(=O)N[C@@H](CCCNC(=N)N)C(=O)N[C@@H](CCCCN)C(=O)N[C@@H](CCCCN)C(=O)N[C@@H](CCCNC(=N)N)C(=O)N[C@@H](CCCNC(=N)N)C(=O)N[C@@H](CCC(N)=O)C(=O)N[C@@H](CCCNC(=N)N)C(=O)N[C@@H](CCCNC(=N)N)C(=O)N[C@@H](CCCNC(=N)N)C(N)=O)[C@@H](C)O [GFPβ11-TAT] (H-RDHMVLHEYVNAAGITGGSGGRKKRRQRRR-NH2) | did not display any cytotoxicity or morphological changes | – | – | – | – | – | – | – |
| RDHMVLHEYVNAAGIT-GGSGGC-(S-S)-CGG-RKKRRQRRR-(PEG)6-GFWFG (disulfide bond, (PEG)6-GFWFG) [GFPβ11-(S-S)-TAT-P6-GFWFG] | absence of any detectable cytotoxicity | Low to no cytotoxicity | Low to no cytotoxicity | four-fold increase | Low to no cytotoxicity | significantly enhanced GFP complementation | significantly enhanced GFP complementation | significantly enhanced GFP complementation |
